# Reference: patent US20130281311A1, “SPECIFIC BIOMARKER FOR IDENTIFICATON OF EXPOSURE TO PROPIONALDEHYDE AND THE METHOD OF IDENTIFICATION USING THE SAME” (KOREA INSTITUTE OF SCIENCE AND TECHNOLOGY, priority 2012, published 2013)
# Legend:
# [1] = system: AGT (angiotensinogen; NM_000029); test: Oligo microarray gene expression in A549 cells, AGT; assay type: cell-based, human; settings: A549, 48 hours at the concentration of Example 1-2, Cy5/Cy3 ratio
# Description: (§1) A549 cells were distributed in 6-well plate at the density of 25×10^4 cells/ml, to which propionaldehyde was treated for 48 hours at the concentration determined in Example <1-2>. Total RNA was extracted from the cells by using trizol reagent according to the manufacturer's protocol (Invitrogen life technologies, USA), followed by purification by using RNease mini kit (Qiagen, USA). Genomic DNA was eliminated by using RNase-free DNase set (Qiagen, USA) during the RNA purification. The amount of total RNA was measured with spectrophotometer, and the concentration was confirmed by ND-1000 Spectrophotometer (Thermo Fisher Scientific Inc., USA) and Agilent 2100 Bioanalyzer (Agilent).
# (§2) For oligomicroarray analysis, cDNA was synthesized by using the total RNA obtained from the experimental group treated with propionaldehyde prepared in Example <2-1>. 30 μg of the obtained total RNA and 2 μg of oligo (dT) primer (1 μg/μl) were mixed together, followed by reaction at 65° C. for 10 minutes, which was transferred into ice for annealing. […]
# (§3) Hybridization images on the slide were scanned with Agilent C scanner (Agilent technologies, CA, USA). […] To obtain gene expression rate, the scanned images were analyzed by using Agilent Feature Extraction 10.7.3.1 (Agilent technologies, CA, USA). […]
# [2] = system: HMOX1 (heme oxygenase 1; NM_002133); test: Oligo microarray gene expression in A549 cells, HMOX1; assay type: cell-based, human; settings: A549, 48 hours at the concentration of Example 1-2, Cy5/Cy3 ratio
# Description: as §1, §2, §3
# [3] = system: AGT, LPAR1, SECTM1, TNFSF10, HMOX1; test: Quantitative real-time RT-PCR of the 5 marker genes; assay type: cell-based, human; settings: endogenous control MDH1; result in words
# Description: At that time, to confirm the propionaldehyde specific expression changes, the said genes were investigated with their expression patterns using the additional 5 aldehydes listed in Table 3.
# Particularly, cDNA was synthesized by performing reverse transcription by using oligo dT primer and Superscript kit (Omniscipt™ kit, Qiagen, Co., USA). 0.2 μl of the synthesized cDNA was mixed with 3.8 μl of water, 0.5 μl of sense primer, 0.5 μl of anti-sense primer, and 5 μl of SYBR Green I staining supermix (Bio-rad, USA), which was loaded in PCR tube, followed by reaction in My IQ real-time PCR machine designed to execute reaction as follows: step 1, 95° C. for 3 minutes; step 2 (45 cycles), step 2-1, 95° C. for 10 seconds; step 2-2, 57° C. for 45 seconds; step 3, 95° C. for 1 minute; step 4, 55° C. for 1 minute; step 5 (80 cycles), 55° C. for 10 seconds. The PCR product was stained with SYBR Green I (Bio-rad, USA) to quantify thereof. SYBR Green I staining is the method taking advantage of intercalating with double-stranded DNA, and thus the more double-stranded DNA is produced, the stronger the fluorescence intensity is obtained during PCR. Primers for the target gene used for PCR and the endogenous control (MDH1) were added to SYBR Green master-mix, followed by PCR. […] Then, PCR was performed and the result was analyzed by using quantitative software.
# [4] = system: A549 cells; test: Cytotoxicity test (MTT assay); assay type: cell-based, human; settings: A549, result in words
# Description: (§4) A549 cells (Korean Cell Line Bank), the human lung cancer tissue derived cell line, were cultured in 100 mm dish containing RPMI (Gibro-BRL, USA) supplemented with 10% FBS until the confluency reached 80%. The present inventors selected propionaldehyde, one of aldehydes among many volatile organic compounds exposed in environment, as a target material based on the previous studies and reports, and then dissolved in DMSO (dimethyl sulfoxide). The concentration of vehicle was up to 0.1% in every experiment.
# (§5) MTT assay was performed with A549 cell line according to the method of Mossman, et al (J. Immunol. Methods, 65, 55-63, 1983).
# (§6) Particularly, the cells were distributed in 24-well plate (3.5×10^4 cells/well) containing RPMI (Gibro-BRL, USA) and then treated with propionaldehyde dissolved in DMSO. 48 hours later, 5 mg/ml of MTT (3-4,5-dimethylthiazol-2,5-diphenyltetra zolium bromide) was added thereto, followed by culture at 37° C. for 3 hours. Then, the medium was discarded and the formed formazan crystal was dissolved in […] of DMSO, which was aliquoted in 96-well plate. OD540 was measured.
# [5] = Cytotoxicity test (MTT assay); assay type: cell-based, human; settings: human, A549 cells; A549 cell line, 48 hours, MTT, OD540; read-out: IC20 (the concentration showing 20% survival rate)
# Description: as §4, §5, §6
# [6] = system: A549 cells; test: Human whole genome oligo microarray, genome-wide expression change; assay type: cell-based; settings: A549, 48 hours
# Description: In a preferred embodiment of the present invention, to screen a biomarker for the identification of propionaldehyde specific exposure, the present inventors treated propionaldehyde to the human lung cancer tissue derived cell line A549 and then investigated cytotoxicity therein. […] Based on the result of that experiment, the concentration of propionaldehyde was determined. Propionaldehyde was treated to the human lung cancer tissue derived cell line at the determined concentration. From the cell line treated with propionaldehyde, mRNA was extracted, followed by synthesis of cDNA which was labeled with fluorescein (Cy5). The control not treated with propionaldehyde was labeled with Cy3. The fluorescein-labeled cDNA was hybridized with 8×60 k oligomicroarray chip [Human whole genome oligo microarray (Agilent, USA)], followed by scanning fluorescence image to analyze gene expression patterns (see FIG. 2). […] 5 kinds of genes whose expressions were increased or decreased specifically by propionaldehyde alone among […] (butylaldehyde, valeradehyde, hexanal, heptanal, octanal, and propionaldehyde) were selected by using real-time quantitative PCR (see FIG. 3, Table 3, and Table 4). […]
# A549 cells were distributed in 6-well plate at the density of 25×10^4 cells/ml, to which propionaldehyde was treated for 48 hours at the concentration determined in Example <1-2>. […]
# [7] = system: SECTM1 (secreted and transmembrane 1; NM_003004); test: Oligo microarray gene expression in A549 cells, SECTM1; assay type: cell-based, human; settings: A549, 48 hours at the concentration of Example 1-2, Cy5/Cy3 ratio
# Description: as §1, §2, §3
# [8] = system: TNFSF10 (tumor necrosis factor (ligand) superfamily, member 10; NM_003810); test: Oligo microarray gene expression in A549 cells, TNFSF10; assay type: cell-based, human; settings: A549, 48 hours at the concentration of Example 1-2, Cy5/Cy3 ratio
# Description: as §1, §2, §3
# [9] = system: LPAR1 (lysophosphatidic acid receptor 1; NM_057159); test: Oligo microarray gene expression in A549 cells, LPAR1; assay type: cell-based, human; settings: A549, 48 hours at the concentration of Example 1-2, Cy5/Cy3 ratio
# Description: as §1, §2, §3
smiles,measurement,setting,value
CCC=O [propionaldehyde],"Median ratio of microarray by propionaldehyde exposure, AGT",[1],0.55
same,"Median ratio of microarray by propionaldehyde exposure, HMOX1",[2],1.52
same,expression patterns of the 5 genes by real-time RT-PCR,[3],very similar to the results of microarray chip analysis
same,cytotoxicity in the human lung cancer tissue derived cell line,[4],had cytotoxicity
same,IC20 at 48 h,[5],2500 µM
same,genes showing at least 1.5 fold higher expression (Cy5/Cy3 ratio),"[6]; 900 genes out of 42,405",2.12%
same,genes showing lower expression (Cy5/Cy3 ratio lower than 0.66),"[6]; 1,522 genes out of 42,405",3.59%
same,"Median ratio of microarray by propionaldehyde exposure, SECTM1",[7],0.63
same,"Median ratio of microarray by propionaldehyde exposure, TNFSF10",[8],0.65
same,"Median ratio of microarray by propionaldehyde exposure, LPAR1",[9],0.62
